# Test results published in patent US20040214856A1, “Cannabinoid receptor ligands and uses thereof” (Pfizer Inc, priority 2003, published 2004).
# Test system: CB-1 receptor
# Experiment: CB-1 receptor binding assay ([3H]SR141716A displacement)
# Conditions: inhibition of [3H]SR141716A binding; rat or human protocol not specified
# Method: The following assays were designed to detect compounds that inhibit the binding of [^3H] SR141716A (selective radiolabeled CB-1 ligand) and [^3H] 5-(1,1-dimethylheptyl)-2-[5-hydroxy-2-(3-hydroxypropyl)-cyclohexyl]-phenol; radiolabeled CB-1/CB-2 ligand) to their respective receptors.
# PelFreeze brains (available from Pel Freeze Biologicals, Rogers, Arkansas) were cut up and placed in tissue preparation buffer (5 mM Tris HCl, pH=7.4 and 2 mM EDTA), polytroned at high speed and kept on ice for 15 minutes. The homogenate was then spun at 1,000×g for 5 minutes at 4° C. The supernatant was recovered and centrifuged at 100,000×G for 1 hour at 4° C. The pellet was then re-suspended in 25 ml of TME ([…], pH=7.4, 5 mM MgCl2, and 1 mM EDTA) per brain used. A protein assay was performed and 200 μl of tissue totaling 20 μg was added to the assay.
# The test compounds were diluted in drug buffer (0.5% BSA, 10% DMSO and TME) and then 25 μl were added to a deep well polypropylene plate. [^3H] […] In the morning the filters were counted on a Wallac Betaplate™ counter (available from PerkinElmer Life Sciences™, Boston, Mass.). […]
# The test compounds were diluted in drug buffer (0.5% BSA, 10% DMSO and TME) and then 25 μl were added to a deep well polypropylene plate. […] In the morning the filters were counted on a Wallac Betaplate™ counter (available from PerkinElmer Life Sciences™, Boston, Mass.).
row,CB-1 binding activities,Compound
1,4 nM,"CC(C)N1Cc2nn(-c3ccccc3Cl)c(-c3ccc(C#N)cc3)c2C1=O [Example 1A-2, 2-(2-chloro-phenyl)-5-isopropyl-3-(4-cyano-phenyl)-5,6-dihydro-2H-pyrrolo[3,4-c]pyrazol-4-one]"
2,2 nM,"CC(C)N1Cc2nn(-c3ccccc3Cl)c(-c3ccc(Cl)cc3)c2C1=O [Example 1A-3, 2-(2-chloro-phenyl)-5-isopropyl-3-(4-chloro-phenyl)-5,6-dihydro-2H-pyrrolo[3,4-c]pyrazol-4-one]"
